Measured values: US5686486A, “4-hydroxy-benzopyran-2-ones and 4-hydroxy-cycloalkyl[b]pyran-2-ones useful to treat retroviral infections” (priority 1995, dated 1997)
Where “and” joins values, the source holds several entries; their conditions need not be identical. Equal values may be shown once.

What was measured:
HIV-1 protease [1] = molecular target: T1, HIV-1 protease (Human immunodeficiency virus type 1 group M subtype B, UniProt P04585); assay: biochemical; conditions: for inhibition at 1 µM: read-out: HIV-1 Protease % Inhib, dose 1.000 uM; for inhibition at 10 µM: read-out: HIV-1 Protease % Inhib, dose 10.000 uM; for inhibition at 100 µM: read-out: HIV-1 Protease % Inhib, dose 100.000 uM; for inhibition at 0.41 µM: read-out: HIV-1 Protease % Inhib, dose 0.410 uM; for inhibition at 1.23 µM: read-out: HIV-1 Protease % Inhib, dose 1.230 uM; for inhibition at 3.7 µM: read-out: HIV-1 Protease % Inhib, dose 3.700 uM; for inhibition at 11 µM: read-out: HIV-1 Protease % Inhib, dose 11.000 uM; for inhibition at 33 µM: read-out: HIV-1 Protease % Inhib, dose 33.000 uM
Outline: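 Biotinylated, FITC-labeled peptide substrate (20 μl of 0.2 μM) incubated with HIV-1 protease (10 μl of 0.1 μM) and compound in 0.1 M sodium acetate pH 5.5, 1.0 M NaCl, 0.05% NP-40, 1 h, room temperature, dark. Streptavidin beads then capture uncleaved substrate; filtered labeled product read by fluorescence, giving percent inhibition.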

HIV-1 protease [2] = molecular target: T1, HIV-1 protease; assay: biochemical; conditions: read-out: HIV-1 FITC KI
Experimental: Determination of Ki values utilizes the same materials and equipment employed for percent inhibition studies. Two-fold serial dilutions are made for a given inhibitor from 2, 3 or 4 starting concentrations with a total of 24, 36 or 48 individual inhibitor concentrations. These dilutions are performed utilizing the BioMek robotics system. The assay consists of 10 μL of 40 nM HIV-1 protease, 10 μL of the various inhibitor concentrations, and 20 μL of 200 μM substrate (40 μL total). The reaction is allowed to proceed for 90 min at room temperature, terminated with 40 μL of avidin beads and processed (supra vide). An inhibitor with a known Ki is run in parallel to verify the validity of the assay. The data is processed utilizing a computer program employing a nonlinear least square analysis of the data to generate the Ki values.

SMILES | Ki (HIV-1 protease [2]) | inhibition at 1 µM (HIV-1 protease [1]) | inhibition at 10 µM (HIV-1 protease [1]) | inhibition at 100 µM (HIV-1 protease [1]) | other results
CCCC(c1cccc(NS(=O)(=O)c2ccc(C#N)cc2)c1)c1c(O)c2c(oc1=O)CCCCCC2 (single isomer, unassigned) [Example 439, (R or S)-Benzenesulfonamide, 4-cyano-N-[3-[1-(5,6,7,8,9,10-hexahydro-4-hydroxy-2-oxo-2H-cycloocta[b]pyran-3-yl)butyl]phenyl]-] | 3 nM | – | – | – | HIV-1 Protease % Inhib (HIV-1 protease [1]; dose 0.123 uM): 60.96%; HIV-1 Protease % Inhib (HIV-1 protease [1]; dose 0.370 uM): 68.15%; HIV-1 Protease % Inhib (HIV-1 protease [1]; dose 1.100 uM): 92.17%; HIV-1 Protease % Inhib (HIV-1 protease [1]; dose 3.300 uM): 92.32%; HIV-1 Protease % Inhib (HIV-1 protease [1]; dose 10.000 uM): 96.45%; HIV-1 Protease % Inhib (HIV-1 protease [1]; dose 30.000 uM): 94.26%
O=c1oc2c(c(O)c1C(c1ccccc1)C1CC1)CCCCCC2 (stereo not drawn) [Example 107, 3-(Cyclopropylphenylmethyl)-5,6,7,8,9,10-hexahydro-4-hydroxy-2h-cycloocta[b]pyran-2-one] | 20 nM and 12 nM and 7 nM | 90.7% | 101% | 101% | –
CCC(c1ccccc1)c1c(O)c2c(oc1=O)CCCC2 (stereo not drawn) [Example 109, 5,6,7,8-Tetrahydro-4-hydroxy-3-(1-phenylpropyl)-2H-l-benzopyran-2-one] | 1090 nM | < 10% | 71.9% | 92% | –
CCC(c1ccccc1)c1c(O)c2c(oc1=O)CCC2 (stereo not drawn) [Example 111, 6,7-Dihydro-4-hydroxy-3-(1-phenylpropyl)-cyclopenta[b]pyran-2(5H)-one] | 700 nM | 36.5% | 94.3% | 101% | –
O=c1oc2c(c(O)c1C(c1ccccc1)C1CC1)CCCCC2 (stereo not drawn) [Example 112, 3-(Cyclopropylphenylmethyl)-6,7,8,9-tetrahydro-4-hydroxy-cyclohepta[b]pyran-2(5H)-one] | 96 nM | 70.1% | 102% | 105% | –
O=c1oc2c(c(O)c1C(c1ccccc1)C1CC1)CCCC2 (stereo not drawn) [Example 115, 3-(Cyclopropylphenylmethyl)-5,6,7,8-tetraphydro-4-hydroxy-2H-1-benzopyran-2-one] | 177 nM | 62.1% | 102% | 129% | –
O=c1oc2c(c(O)c1C(c1ccccc1)C1CC1)CCCCCCCC2 (stereo not drawn) [Example 116, 3-(Cyclopropylphenylmethyl)-5,6,7,8,9,10,11,12-octahydro-4-hydroxy-2H-cyclodeca[b]pyran-2-one] | 558 nM | 23% | 65.7% | 102% | –
O=c1oc2c(c(O)c1C(c1ccccc1)C1CC1)CCCCCCC2 (stereo not drawn) [Example 117, 3-(Cyclopropylphenylmethyl)-6,7,8,9,10,11-hexahydro-4-hydroxy-cyclonona[b]pyran-2(5H)-one] | 37 nM | – | – | 100% | inhibition at 0.41 µM (HIV-1 protease [1]): 80.1%; inhibition at 1.23 µM (HIV-1 protease [1]): 94%; inhibition at 3.7 µM (HIV-1 protease [1]): 101%; inhibition at 11 µM (HIV-1 protease [1]): 114%; inhibition at 33 µM (HIV-1 protease [1]): 107%
O=C(Nc1cccc(C(c2c(O)c3c(oc2=O)CCCCCC3)C2CC2)c1)OCc1ccccc1 (stereo not drawn) [Example 119, Carbamic acid, [3-[cyclopropyl(5,6,7,8,9,10-hexahydro-4-hydroxy-2-oxo-2H-cycloocta[b]pyran-3-yl)methyl]phenyl]-, phenylmethyl ester] | 257 nM | – | – | 101% | inhibition at 0.41 µM (HIV-1 protease [1]): 27.5%; inhibition at 1.23 µM (HIV-1 protease [1]): 55.4%; inhibition at 3.7 µM (HIV-1 protease [1]): 82.5%; inhibition at 11 µM (HIV-1 protease [1]): 97.7%; inhibition at 33 µM (HIV-1 protease [1]): 96.8%
